From article PMC5537225, “Therapeutic efficacy of a respiratory syncytial virus fusion inhibitor” (Nature Communications, 2017)
Like-named read-outs stand apart in the source and are kept apart here.

Legend:
[1] = target: T1, prefusion-stabilized RSV F protein (DS-Cav1) (Human respiratory syncytial virus A, UniProt P03420, I379V/M447V/S155C/S190F/S290C/V207L); assay: biochemical; type: binding; conditions: ITC
T1 construct: purification tags incl; made in house; host or cells: FreeStyle 293 F cells, with kifunensine
T1 sequence (P03420 137-513, looked up, stated change not applied): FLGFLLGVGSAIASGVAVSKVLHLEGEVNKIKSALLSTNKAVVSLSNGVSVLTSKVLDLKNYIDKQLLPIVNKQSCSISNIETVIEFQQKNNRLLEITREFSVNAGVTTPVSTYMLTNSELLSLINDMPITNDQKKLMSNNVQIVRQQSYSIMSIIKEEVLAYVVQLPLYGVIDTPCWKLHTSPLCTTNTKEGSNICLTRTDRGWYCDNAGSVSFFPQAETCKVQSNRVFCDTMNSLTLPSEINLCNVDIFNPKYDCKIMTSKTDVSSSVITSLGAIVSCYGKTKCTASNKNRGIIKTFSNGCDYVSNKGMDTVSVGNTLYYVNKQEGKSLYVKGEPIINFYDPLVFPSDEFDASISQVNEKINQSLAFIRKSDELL
T1 sequence (P03420 26-109, stated change not applied): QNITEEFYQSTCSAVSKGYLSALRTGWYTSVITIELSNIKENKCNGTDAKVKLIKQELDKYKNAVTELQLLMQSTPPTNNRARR

post-fusion RSV F = type: binding; conditions: ITC
[2] = target: T2, prefusion L141W mutant RSV F (DS-Cav1) (Human respiratory syncytial virus A, UniProt P03420, I379V/L141W/M447V/S155C/S190F/S290C/V207L); type: binding; conditions: ITC; 1:1 fits could not be determined
T2 construct: purification tags incl; made in house; host or cells: FreeStyle 293 F cells, with kifunensine
T2 sequence (P03420 137-513, looked up, stated change not applied): as the sequence (P03420 137-513, looked up, stated change not applied) above
T2 sequence (P03420 26-109, stated change not applied): as the sequence (P03420 26-109, stated change not applied) above

[3] = target: T3, prefusion D489Y mutant RSV F (DS-Cav1) (Human respiratory syncytial virus A, UniProt P03420, D489Y/I379V/M447V/S155C/S190F/S290C/V207L); type: binding; conditions: ITC; 1:1 fits could not be determined
T3 construct: purification tags incl; made in house; host or cells: FreeStyle 293 F cells, with kifunensine
T3 sequence (P03420 26-109, stated change not applied): as above
T3 sequence (P03420 137-513, looked up, stated change not applied): as the sequence (P03420 137-513, looked up, stated change not applied) above

[4] = target: T4, full-length wild-type RSV F protein (Human respiratory syncytial virus A, UniProt P03420); assay: Membrane-bound F protein stability assay (heat-shock flow cytometry, HEK293T cells); type: cell-based; conditions: 55 °C for 10 min
T4 construct: The full-length wild-type RSV F protein was transiently expressed in HEK293T cells; expressed in transfected cells; host or cells: HEK293T
T4 sequence (P03420 26-109): as the sequence (P03420 26-109, stated change not applied) above
T4 sequence (P03420 137-574): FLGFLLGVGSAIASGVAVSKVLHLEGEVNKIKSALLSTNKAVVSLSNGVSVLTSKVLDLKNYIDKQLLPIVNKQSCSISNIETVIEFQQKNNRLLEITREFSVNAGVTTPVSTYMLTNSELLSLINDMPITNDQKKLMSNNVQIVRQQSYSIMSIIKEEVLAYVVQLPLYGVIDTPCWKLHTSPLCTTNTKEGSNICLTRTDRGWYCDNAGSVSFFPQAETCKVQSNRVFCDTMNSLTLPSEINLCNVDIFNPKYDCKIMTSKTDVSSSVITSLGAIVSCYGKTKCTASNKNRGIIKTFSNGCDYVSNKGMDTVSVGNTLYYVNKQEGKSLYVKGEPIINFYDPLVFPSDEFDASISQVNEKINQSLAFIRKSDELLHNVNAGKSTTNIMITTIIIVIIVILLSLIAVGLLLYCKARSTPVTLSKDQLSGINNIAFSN
Method: The full-length wild-type RSV F protein was transiently expressed in HEK293T cells. Forty-eight hours post transfection, the cells were detached using an EDTA-containing buffer and the cell suspension with or without added compounds was heat-shocked for 10 min at 55 °C. The cells were stained with the CR9501 and CR9503 antibodies (1 µg ml^−1) directly labeled with AlexaFluor647 (Alexa Fluor® 647 Monoclonal Antibody Labeling Kit, Molecular Probes/Invitrogen). Propidium iodide (Molecular Probes/Invitrogen) was used as a live-dead stain. Flow Cytometry was performed on FACS Canto II instrument (BD Biosciences). The data were analyzed using FlowJo9.6.1 software. A single cell population was selected on the side and forward scatters dot-plot. Within this population, PI-negative cells were analyzed for staining with CR9501 and CR9503 antibodies. Mean fluorescence intensity was calculated and the values of the heat-shocked samples were normalized to untreated (37 °C) samples.

rgRSV224 = assay: microbe, parasite or virus in culture; type: cell-based, respiratory syncytial virus; conditions: for EC50: human respiratory syncytial virus, HeLa
recombinant hMPV = assay: microbe, parasite or virus in culture; type: cell-based; conditions: human metapneumovirus, Vero/TMPRSS2; mean of at least 3 experiments
recombinant PIV-3 strain = assay: microbe, parasite or virus in culture; type: cell-based, human parainfluenza virus 3; conditions: Human respirovirus 3, Vero; mean of at least 3 experiments
CVB = CVB assay in Vero Bayer cells; type: cell-based, Coxsackie virus B4; conditions: Enterovirus B, mean of at least 3 experiments
HIV-1 IIIB virus = assay: HIV-1 assay in MT4-LTR-Luc cells; type: cell-based; conditions: Human immunodeficiency virus 1, IIIB; mean of at least 3 experiments
Method: (§1) Briefly, white 384-well plates were filled in quadruplicate using a customized robot system with serial fourfold dilutions of compound in a final volume of 10 µl culture medium. Then, 15 µl of a MT4-LTR-Luc cell suspension (4 × 10^5 cells per ml) in culture medium was added to each well followed by the addition of 15 µl HIV IIIB virus (MOI = 0.0125) in culture medium using a multidrop dispenser. […] The CC50 value was calculated on the basis of the difference of luminescence between non-treated and compound-treated cells.

[5] = Cytotoxicity in non-infected MT4-LTR-Luc cells; type: cell-based; conditions: human, mean of at least 3 experiments, read-out: CC50 (HIV-1 row)
Method: as §1

[6] = tested on: HCV genotype 1b subgenomic replicon; assay: microbe, parasite or virus in culture; type: cell-based; conditions: Hepatitis C virus; mean of at least 3 experiments
DENV-2 = assay: microbe, parasite or virus in culture; type: cell-based; conditions: Dengue virus, read-out: EC50 DENV
CMV-AD169-eGFP virus = assay: microbe, parasite or virus in culture; type: cell-based, cytomegalovirus; conditions: Human betaherpesvirus 5, AD169, HEL 299; mean of at least 3 experiments
[7] = tested on: rgRSV224 D489Y mutant strain; type: cell-based, respiratory syncytial virus; conditions: rgRSV224 carrying a D489Y resistance mutation in F; read-out: EC50 (mutant RSV)
L141W mutant RSV = type: cell-based, respiratory syncytial virus; conditions: A549 cells, time-lapse imaging 48 h
D489Y mutant RSV = type: cell-based, respiratory syncytial virus; conditions: A549 cells, time-lapse imaging 48 h
Long strain RSV = assay: In vivo efficacy in RSV-infected cotton rats; design: species or system Sigmodon hispidus cotton rats
RSV A2 = assay: Viral titer in RSV-inoculated BALB/c mice; type: in vivo; conditions: single 40 mg kg−1 dose 1 h before infection
[8] = tested on: RSV-induced pro-inflammatory cytokines and chemokines; assay: Cytokine and chemokine analysis in RSV-infected BALB/c mice; type: in vivo; conditions: single 40 mg kg−1 p.o. 1 h before infection, Day 6, mean ± s.e.m., n=6
[9] = tested on: RSV-induced cellular influx in the lungs; assay: Measurement of cellular influx into the lungs of RSV-infected BALB/c mice; type: in vivo
RSV M37 strain = assay: In vivo efficacy in RSV-infected neonatal lambs
[10] = tested on: soluble prefusion ectodomain of F protein; conditions: DSF
HeLa RH cells = conditions: human, 3 days
Method: (§2) After 3 days of incubation at 33 °C, cytopathic effect (CPE) was quantified by measuring the ATP content in compound-treated and non-treated cells with ATPlite kit according to the manufacturer’s instructions. Cytotoxicity of the compound was determined in a parallel set of plates mock-infected with cell culture medium. After 3 days of incubation at 33 °C, ATP content in compound-treated and non-treated cells was quantified with ATPlite kit.

[11] = dog
in vivo [12] = conditions: 10 mg/kg
in vivo [13] = conditions: male, Beagle, dog
in vitro [14] = conditions: African green monkey
in vitro [15] = conditions: African green monkey; remark: listed apart in the source
Method: Briefly, black 384-well clear-bottom microtiter plates were filled in quadruplicate using a customized robot system with serial fourfold dilutions of compound in a final volume of 200 nl DMSO. Then, 20 µl of a Vero Bayer cell suspension (3.75 × 10^4 cells/ml) in culture medium was added to each well followed by the addition of 20 µl PIV-3-eGFP virus (MOI = 1) in culture medium, or 20 µl culture medium for cell controls, using a multidrop dispenser.

in vitro [16] = conditions: African green monkey; remark: listed apart in the source
in vitro [17] = conditions: human
in vitro [18] = conditions: human; remark: listed apart in the source
Method: Briefly, 96-well plates were filled with 100 µl/well of HepG2.117 cells (2 × 10^4 cells per well) and incubated overnight at 37 °C in a humidified atmosphere containing 5% CO2.

recombinant MV = assay: MV assay in Vero/hSLAM cells; conditions: Measles morbillivirus, Vero, read-out: EC50 MV
HRV 16 = assay: HRV assay (CPE, HeLa RH cells), HRV 16; conditions: Rhinovirus A, read-out: EC50 HRV 16
Method: as §2

HRV 1b = assay: HRV assay (CPE, HeLa RH cells), HRV 1b; conditions: Rhinovirus A, read-out: EC50 HRV 1b
Method: as §2

RSV A and B strains = conditions: HeLa cells
Method: Briefly, black 384-well clear-bottom microtiter plates were filled in quadruplicate using a customized robot system with serial fourfold dilutions of compound in a final volume of 200 nl dimethylsulfoxide (DMSO). Then, 20 µl of a HeLa cell suspension (5 × 10^4 cells ml^−1) in culture medium was added to each well followed by the addition of 20 µl RSV (multiplicity of infection, MOI = 0.02) in culture medium, or 20 µl culture medium for cell controls, using a multidrop dispenser. […] In parallel, compounds were incubated for 3 days in a set of white 384-well microtiter plates and the cytotoxicity of compounds in HeLa cells (CC50) was determined by measuring the adenosine triphosphate (ATP) content of the cells using the ATPlite kit (PerkinElmer, Waltham, MA) according to the manufacturer’s instructions. The activity of the compound against non-recombinant RSV A and B strains was determined similarly by plaque assay[70].

[19] = tested on: rgRSV224 in human bronchoepithelial cells (HBECs); assay: Antiviral potency in air-liquid cultures of HBECs infected with rgRSV224
[20] = RSV-infected, single 40 mg kg−1 p.o., BAL, mean ± s.e.m., n=6
[21] = 25 mg kg−1 daily starting 1 day after infection
[22] = HBECs, 100 nM, 6 or 24 h after onset of infection

CS(=O)(=O)CCCn1c(Cn2c(=O)n(CC(F)(F)F)c3ccncc32)cc2cc(Cl)ccc21 [JNJ-53718678]
binding stoichiometry [1]: one inhibitor per trimer
Kd ([1]; read-out: equilibrium dissociation constant (KD)): 0.0074 µM
binding to post-fusion RSV F (post-fusion RSV F): did not bind
effect of L141W mutation on binding affinity to prefusion F [2]: dramatic reduction
effect of D489Y mutation on binding affinity to prefusion F [3]: dramatic reduction
fraction of prefusion F on the surface of the cells after heat shock [4]: concentration-dependent increase
improvement of activity as compared to BMS-433771 (rgRSV224): > 10 fold
EC50 (rgRSV224; mock-treated rgRSV224 during in vitro selection procedure, read-out: EC50 wild-type strain (untreated control)): 1.6e-09 M
EC50 (rgRSV224; pEC50 = -Log10(EC50)(M), preliminary SAR, read-out: pEC50 (converted)): 5.01e-10 M
EC50 (recombinant hMPV): 73 µM
EC50 (recombinant PIV-3 strain): 26.3 µM
EC50 (CVB): 3.73 µM
EC50 (HIV-1 IIIB virus): 13.5 µM
CC50 at 2 days [5]: 21.6 µM
EC50 [6]: 24.3 µM
EC50 (DENV-2): 17.7 µM
EC50 (CMV-AD169-eGFP virus): 17.4 µM
EC50 [7]: 4.1 µM
concentration required for inhibition of the infection rate, L141W mutant RSV (L141W mutant RSV): 100 nM
concentration required for inhibition of the infection rate, D489Y mutant RSV (D489Y mutant RSV): 10 µM
decrease of the RSV titer in both BALF and lavaged-lung tissue (Long strain RSV; 40 mg kg−1 once daily from 24 h until Day 3 post-inoculation): 1.5 log10
decrease of RSV titer in lungs vs vehicle group (Long strain RSV; single oral prophylactic dose 100 mg kg−1, 1 h before infection, on average): 100 fold
reduction of the viral titer (Long strain RSV; single-dose therapeutic treatment 40 mg kg−1, 24 h after infection): moderate reduction
viral titer in BALF and lavaged lung (RSV A2): significant decrease
CCL2 mean concentration in BALF [8]: 118 ± 17 pg/mL
CCL3 mean concentration in BALF [8]: 77 ± 11 pg/mL
CCL5 mean concentration in BALF [8]: 111 ± 13 pg/mL
CXCL1 mean concentration in BALF [8]: 145 ± 23 pg/mL
CXCL9 mean concentration in BALF [8]: 1,878 ± 135 pg/mL
CXCL10 mean concentration in BALF [8]: 2,265 ± 332 pg/mL
IFN mean concentration in BALF [8]: 465 ± 109 pg/mL
IL-1 mean concentration in BALF [8]: 171 ± 8 pg/mL
IL-6 mean concentration in BALF [8]: 29 ± 5 pg/mL
IL-12p40 mean concentration in BALF [8]: 0.7 ± 0.4 pg/mL
IL-17 mean concentration in BALF [8]: 3.2 ± 0.3 pg/mL
reduction of influx of neutrophils ([9]; BALB/c mice, single 40 mg kg−1 dose 1 h before infection): ~ 5.5 fold
CD4+ T cells, mean cell number [9, 20]: 986 ± 113
CD8+ T cells, mean cell number [9, 20]: 2,757 ± 447
Monocytes (CD115+ infiltrating into the lung), mean cell number [9, 20]: 33 ± 9
NK cells, mean cell number [9, 20]: 1,059 ± 130
Neutrophils, mean cell number [9, 20]: 160 ± 40
T cells, mean cell number [9, 20]: 2,869 ± 671
reduction of the viral RNA titer in BALF and lavaged-lung tissue vs vehicle (RSV M37 strain; [21]): > 95%
reduction of the viral RNA titer in BALF vs vehicle (RSV M37 strain; [21]): ~ 22 fold
reduction of the viral RNA titer in lavaged-lung tissue vs vehicle (RSV M37 strain; [21]): ~43 fold
microscopic lung lesions (RSV M37 strain; 25 mg kg−1 initiated 1 day after infection): lacked microscopic lesions
formation of gross RSV-associated lung lesions (RSV M37 strain; once daily starting 1 day after infection): complete inhibition
RSV infectious titer in BALF and lavaged-lung tissue (RSV M37 strain; oral once daily 1, 5 or 25 mg kg−1 starting 1 day after infection, Day 6): (almost) complete eradication
melting temperature (Tm) of soluble prefusion F ectodomain [10]: concentration-dependent increase
CC50 (HeLa RH cells): > 100 µM
F ([11]; PO 5 mg kg−1 vs IV 1 mg kg−1): 89%
CLp as fraction of LBF ([11]; male, Beagle, in vivo, iv, 1 mg/kg): ~ 27 % LBF
Cmax (in vivo [12]): 254 ng/mL
Tmax (in vivo [12]): 1 h
AUC(0-t) (in vivo [12]; AUC0-7 lung): 2020 ng·h/mL
AUC(0-t) (in vivo [12]; AUC0-7 plasma): 680 ng·h/mL
Vd (in vivo [13]; in vivo, iv, 1 mg/kg): 2.8 L/kg
AUC(0-inf) (in vivo [13]; in vivo, po, 5 mg/kg): 9690 ng·h/mL
Cmax (in vivo [13]; in vivo, po, 5 mg/kg): 1120 ng/mL
Tmax (in vivo [13]; in vivo, po, 5 mg/kg): 1.7 h
half-life (in vivo [13]; plasma): 4.1 h
clearance (in vivo [13]; plasma, iv, 1 mg/kg): 9 mL/min/kg
CC50 at 3 days (in vitro [14]): > 25 µM
CC50 (in vitro [15]): > 100 µM
CC50 at 2 days (in vitro [15]): > 100 µM
CC50 at 3 days (in vitro [16]): > 25 µM
CC50 at 5 days (in vitro [17]): > 100 µM
CC50 at 4 days (in vitro [18]): > 100 µM
EC50 (recombinant MV): > 100 µM
EC50 (HRV 16): > 100 µM
EC50 (HRV 1b): > 100 µM
activity against RSV strains from both A and B subtypes (RSV A and B strains): highly active
reduction of viral replication vs non-treated cells [19, 22]: ~ 1.3 log10
reduction of viral titer vs non-treated cells [19, 22]: ~ 1.3 log10
EC50 ([19]; human respiratory syncytial virus, read-out: calculated EC50): 0.0012 µM
